According to patent US7960375B2, “8-chloro-2,3-benzodiazepine derivatives” (priority 2003, dated 2011):

Legend:
mice [1] = test: Permanent focal cerebral ischemia in mice; assay type: in vivo; settings: for Neuroprotective effect (necrotic brain surface area): 30 min after surgery, male NMRI mice, *p < 0.05; for dose that statistically significantly decreased the necrotic surface area: permanent focal ischemia, mice
Procedure: Permanent Focal Cerebral Ischemia in Mice
In these experiments a modified method of Karkoutly et al. (1990) was used. Male NMRI mice weighing 30-35 g were anaesthetized with 2,2,2-tribromoethanol at 500 mg/kg (20 ml/kg) administered i.p. The surgical procedure was performed according to Welsh et al. (1987). After drilling a hole into the skull the distal branch of the middle cerebral artery was electrocoagulated. Test compounds were administered i.p. 30 min after surgery. Two days later the animals were deeply anaesthetized with sodium pentobarbital (120 mg/kg i.p.). The brain was perfused through the left ventricle of the heart with a 4% solution of 2,3,5-triphenyltetrazolium chloride (TTC). One hour later the animals were decapitated, the brains were removed and placed into ice-cold saline for a few min. Then the brains were fixed in 8% formalin solution for 24 hours. The necrotic (non-stained with TTC) brain surface area was measured by means of an image analyser computer system (DigiCell for Windows 4.0). Statistical significance was assessed using ANOVA followed by Duncan's test.

mice [2] = test: Maximal electroshock (MES) test in mice; assay type: in vivo; settings: male NMRI mice, electroshock 30 min after ip. treatment
Procedure: Maximal Electroshock (MES) Test in Mice
The experiments were performed according to Swinyard et al. (1952). Male NMRI mice weighing 20 to 25 g were treated intraperitoneally with the test compounds administered in a volume of 10 ml/kg. […] The number of animals showing positive reaction was counted in each group. The dose of test substance causing 50% (ED50) inhibition was calculated according to the method of Litchfield and Wilcoxon (1949).
MES=maximal electroshock (in mice): electroshock of sufficient current intensity applied through corneal electrodes to mice causes tonic extensor convulsion of the hind legs.

[3] = Study of toxic effects in rats (body weight gain); assay type: in vivo; settings: female Wistar rats, 15 mg/kg/day orally for 7 days; mean ± standard error of the mean; control 17.4 ± 1.4
Procedure: Study of Toxic Effects in Rats
The study was performed in female Wistar rats. On the day preceding the first treatment all animals were weighed and randomly allocated into treatment groups (10 animals/group). The test compounds were suspended in 0.4% hydroxymethyl cellulose solution (Methocell F4 M, Daw Chemical Company, USA) and were administered orally once a day for 7 days. The dose of non-chiral compounds according to the examples 8 and 9 was 15 mg/kg/day.
Animals of the control group were treated with the vehicle. The weight of the animals was registered every day. Weight gain was the difference between body weights on the first day and last day of the experiment. Toxicity of the test compounds was shown as a decrease in body weight or negative weight gain.
BWG=body weight gain: the difference between body weights on the first and last days of the experiment given as mean ± standard error of the mean.

Row | SMILES | Neuroprotective effect (necrotic brain surface area) (mice [1]; dose 1.0 mg/kg ip.) | Neuroprotective effect (necrotic brain surface area) (mice [1]; dose 3.0 mg/kg ip.) | Neuroprotective effect (necrotic brain surface area) (mice [1]; dose 10.0 mg/kg ip.) | dose that statistically significantly decreased the necrotic surface area (mice [1]) [mg/kg i.p.] | MES, ED50 (mice [2]) [mg/kg ip.] | Neuroprotective effect (necrotic brain surface area) (mice [1]; dose 0.1 mg/kg ip.) | Neuroprotective effect (necrotic brain surface area) (mice [1]; dose 0.3 mg/kg ip.) | BWG (body weight gain) [3] [g] | melting point [°C]
1 | CC(=O)N1N=C(c2ccc(N)cc2)c2cc3c(cc2C=C1C)OCO3 [7-acetyl-5-(4-aminophenyl)-8-methyl-7H-1,3-dioxolo-[4,5-h][2,3]-benzodiazepine, reference compound] | −1 | −14 | −21* | 10 |  |  |  |  | 
2 | CNC(=O)N1N=C(c2ccc(N)c(C)c2)c2cc(Cl)ccc2C=C1C [Example 8, 1-(4-Amino-3-methylphenyl)-8-chloro-4-methyl-3H-2,3-benzodiazepine-3-carboxylic acid methyl amide] | −17* | −15* | −22* | 0.3 | 4.1 | −5 | −17* | 9.9 ± 3.1 | 210 to 212
3 | CCC(=O)N1N=C(c2ccc(N)c(C)c2)c2cc(Cl)ccc2C=C1C |  |  |  |  |  |  |  |  | 218 to 221
4 | CC1=Cc2ccc(Cl)cc2C(c2ccc(N)c(C)c2)=NN1C(=O)NC1CC1 [Example 9, 1-(4-Amino-3-methylphenyl)-8-chloro-4-methyl-3H-2,3-benzodiazepine-3-carboxylic acid cyclopropyl amide] |  |  |  |  | 2.2 |  |  | 17.7 ± 1.3 | 233 to 236
5 | CC(=O)N1N=C(c2ccc(N)c(C)c2)c2cc(Cl)ccc2C=C1C |  |  |  |  |  |  |  |  | 209 to 211
